# Earlier results, collected in patent EP2561868A1 (Van Oosten, Anton Bernhard, priority 2011, dated 2013).
# Entries after “also recorded” stand apart in the source; their conditions may differ.
# Columns and labels:
# [1] = not given; remark: listed apart in the source
# serum immunoglobulin = conditions: patient Z
# bone marrow plasma cell = conditions: patient Z
# [2] = tested on: multiple myeloma and MGUS; conditions: patients with multiple myeloma and MGUS
# human CYP3A4 = human CYP3A4 (Homo sapiens, UniProt P08684)
# human CYP3A4, sequence (P08684 whole entry): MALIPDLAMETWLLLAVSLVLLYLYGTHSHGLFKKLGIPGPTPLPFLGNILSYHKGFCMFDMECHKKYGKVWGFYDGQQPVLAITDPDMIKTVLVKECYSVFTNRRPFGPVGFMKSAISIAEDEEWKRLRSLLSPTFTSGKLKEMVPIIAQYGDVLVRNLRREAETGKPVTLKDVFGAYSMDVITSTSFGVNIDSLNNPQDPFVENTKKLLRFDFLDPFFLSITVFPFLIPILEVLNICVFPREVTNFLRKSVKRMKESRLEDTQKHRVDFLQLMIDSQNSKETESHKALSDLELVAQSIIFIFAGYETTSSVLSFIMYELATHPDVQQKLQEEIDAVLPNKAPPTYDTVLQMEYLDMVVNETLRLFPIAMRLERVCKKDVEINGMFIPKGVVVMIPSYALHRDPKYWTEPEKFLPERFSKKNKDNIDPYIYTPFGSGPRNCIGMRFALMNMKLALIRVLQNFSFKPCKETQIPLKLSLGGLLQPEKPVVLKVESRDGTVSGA
# P-glycoprotein = P-glycoprotein (Homo sapiens, UniProt P08183)
# P-glycoprotein, sequence (P08183 whole entry): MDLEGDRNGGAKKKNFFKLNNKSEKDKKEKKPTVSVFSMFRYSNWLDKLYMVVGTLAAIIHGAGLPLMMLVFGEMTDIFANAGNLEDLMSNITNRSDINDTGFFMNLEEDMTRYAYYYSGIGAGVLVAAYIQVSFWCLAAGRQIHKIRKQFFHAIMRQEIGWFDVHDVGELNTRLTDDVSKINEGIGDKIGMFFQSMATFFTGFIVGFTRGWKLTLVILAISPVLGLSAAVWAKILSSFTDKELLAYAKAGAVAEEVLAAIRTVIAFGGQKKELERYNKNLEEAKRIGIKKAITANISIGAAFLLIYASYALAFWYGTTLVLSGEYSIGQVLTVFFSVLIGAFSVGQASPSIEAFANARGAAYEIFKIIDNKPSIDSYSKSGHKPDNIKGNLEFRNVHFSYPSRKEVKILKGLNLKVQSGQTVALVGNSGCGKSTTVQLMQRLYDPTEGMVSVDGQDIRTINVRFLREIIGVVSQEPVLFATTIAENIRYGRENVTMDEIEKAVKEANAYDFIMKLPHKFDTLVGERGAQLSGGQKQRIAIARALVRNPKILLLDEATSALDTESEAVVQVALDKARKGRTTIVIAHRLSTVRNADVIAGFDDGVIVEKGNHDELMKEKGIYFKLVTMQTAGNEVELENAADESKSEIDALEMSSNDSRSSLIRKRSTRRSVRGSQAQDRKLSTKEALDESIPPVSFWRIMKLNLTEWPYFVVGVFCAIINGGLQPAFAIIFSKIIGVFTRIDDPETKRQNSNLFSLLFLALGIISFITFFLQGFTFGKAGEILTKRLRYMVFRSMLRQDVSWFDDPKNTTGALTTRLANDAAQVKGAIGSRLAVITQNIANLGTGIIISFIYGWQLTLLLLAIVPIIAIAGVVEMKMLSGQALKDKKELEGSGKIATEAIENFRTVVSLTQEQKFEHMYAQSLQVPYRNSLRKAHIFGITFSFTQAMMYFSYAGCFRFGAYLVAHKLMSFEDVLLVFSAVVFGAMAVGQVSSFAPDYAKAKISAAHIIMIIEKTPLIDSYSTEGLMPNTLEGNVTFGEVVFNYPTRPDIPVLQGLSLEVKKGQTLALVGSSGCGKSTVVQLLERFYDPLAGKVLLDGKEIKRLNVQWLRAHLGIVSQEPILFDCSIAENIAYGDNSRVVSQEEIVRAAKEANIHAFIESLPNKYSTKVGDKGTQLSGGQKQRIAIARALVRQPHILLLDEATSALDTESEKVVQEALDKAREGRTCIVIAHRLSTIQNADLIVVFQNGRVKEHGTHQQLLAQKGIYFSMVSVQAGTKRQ
# [3] = curcumin 8000 - 14,000 mg, no HCQ
smiles,measurement,setting,value
"CCN(CCO)CCCC(C)Nc1ccnc2cc(Cl)ccc12.O=S(=O)(O)O (centres unmarked) [Hydroxychloroquine, 2-[[4-[(7-Chloro-4-quinolyl)amino]pentyl]ethylamino] ethanol sulfate (1:1)]",risk of toxicity,"after 5 to 7 years of use, or a cumulative dose of 1000 g",~1%
same,dose considered safe,"non-obese person (Marmor M et al., 2002)",6.5 mg/kg/day
same,soluble in water,[1],at least 20%
O=C1CC[C@@]2(O)[C@H]3Cc4ccc(O)c5c4[C@@]2(CCN3CC2CC2)[C@H]1O5 [LDN],IgG,"serum immunoglobulin; serum, 12/26/07, LDN, diet",30.0 g/L
same,M-IgG,"serum immunoglobulin; serum, 12/26/07, LDN, diet",20.5 g/L
COc1cc(/C=C/C(=O)CC(=O)/C=C/c2ccc(O)c(OC)c2)ccc1O [curcumin],"m-spike / M-IgG serum concentration, response to treatment",serum immunoglobulin; [3],did not react to treatment
same,clinical benefit,"bone marrow plasma cell; 8000 mg to 14,000 mg daily, June 27 to December 26, 2007",without any clear benefit
same,BMPC values / progression,bone marrow plasma cell; [3],did not prevent progression or cause a downward evolution of the BMPC nor the m-spike; also recorded: No clear benefit
same,objective responses,[2],no objective responses
O=C(/C=C/C=C/c1ccc2c(c1)OCO2)N1CCCCC1 [piperine],inhibition of human CYP3A4,human CYP3A4,inhibit
same,inhibition of P-glycoprotein,P-glycoprotein,inhibit
